# From ChEMBL document CHEMBL2311471, “Synthesis of (E)-8-(3-chlorostyryl)caffeine analogues leading to 9-deazaxanthine derivatives as dual A(2A) antagonists/MAO-B inhibitors” (J Med Chem, 2013)
# Target: Adenosine receptor A2a (Homo sapiens, UniProt P29274)
# Assay: Displacement of [3H]ZM241385 from human adenosine A2A receptor expressed in HEK293 cells after 1 hr by microbeta scintillation counting analysis
# Format: cell-based
# Chain of Adenosine receptor A2a (P29274 whole entry): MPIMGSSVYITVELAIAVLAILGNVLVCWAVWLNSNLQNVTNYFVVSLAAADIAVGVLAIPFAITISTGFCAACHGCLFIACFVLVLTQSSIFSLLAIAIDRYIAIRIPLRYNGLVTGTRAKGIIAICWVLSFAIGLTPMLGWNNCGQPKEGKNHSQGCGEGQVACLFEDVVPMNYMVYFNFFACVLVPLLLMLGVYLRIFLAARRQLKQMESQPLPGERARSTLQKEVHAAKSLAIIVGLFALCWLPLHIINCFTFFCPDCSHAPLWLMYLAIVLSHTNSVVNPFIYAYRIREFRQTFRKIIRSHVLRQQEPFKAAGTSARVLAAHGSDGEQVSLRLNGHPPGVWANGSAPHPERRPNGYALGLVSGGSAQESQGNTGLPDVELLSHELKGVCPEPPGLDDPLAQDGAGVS
row,SMILES,Ki [nM]
1,Cn1c(=O)c2c(cc(/C=C/c3ccc(O)cc3)n2C)n(C)c1=O,> 10000
2,Cn1c(=O)c2c(cc(OCc3ccc(Cl)cc3)n2C)n(C)c1=O,> 10000
3,CCn1c(=O)c2c(cc(C#Cc3ccc(Cl)cc3)n2C)n(CC)c1=O,> 10000
4,Cn1c(=O)c2c(cc(/C=C/c3ccc(C(F)(F)F)cc3)n2C)n(C)c1=O,531
5,Cn1c(=O)c2c(cc(/C=C/c3ccc(Cl)c(Cl)c3)n2C)n(C)c1=O,> 10000
6,Cn1c(=O)c2c(cc(/C=C/c3cccc(C(F)(F)F)c3)n2C)n(C)c1=O,> 10000
7,Cn1c(=O)c2c(cc(/C=C/c3ccc(F)cc3)n2C)n(C)c1=O,423
8,COc1ccc(/C=C/c2cc3c(c(=O)n(C)c(=O)n3C)n2C)cc1,247
9,Cn1c(=O)c2c(cc(/C=C/c3ccc(C#N)cc3)n2C)n(C)c1=O,> 1000
10,CN(C(=O)/C=C/c1ccccc1)c1cn(C)c(=O)n(C)c1=O,> 1000
11,Cn1c(=O)c2c(cc(/C=C/c3ccccc3)n2C)n(C)c1=O,170
12,Cn1c(=O)c2c(nc(/C=C/c3ccc(Cl)cc3)n2C)n(C)c1=O,141
13,CCn1c(=O)c2c(cc(/C=C/c3ccc(Cl)cc3)n2C)n(CC)c1=O,> 10000
14,Cn1c(=O)c2c(cc(/C=C/c3cccc(N)n3)n2C)n(C)c1=O,887
15,Cn1c(=O)c2c(c3cc(OCc4ccccc4)ccc3n2C)n(C)c1=O,> 1000
16,Cn1c(=O)c2c(cc(-c3nc4ccc(Cl)cc4o3)n2C)n(C)c1=O,> 1000
17,Cn1c(=O)c2c(cc(C#CCc3ccccc3)n2C)n(C)c1=O,> 10000
18,CC(=O)c1cccc(/C=C/c2cc3c(c(=O)n(C)c(=O)n3C)n2C)c1,> 10000
19,Cn1c(=O)c2c(cc(/C=C/c3ccncc3)n2C)n(C)c1=O,> 10000
20,Cn1c(=O)c2c(cc(/C=C/c3cccc(O)c3)n2C)n(C)c1=O,> 1000
21,Cn1c(=O)c2c(cc(/C=C/c3ccc4c(c3)OCO4)n2C)n(C)c1=O,467
22,Cn1c(=O)c2c(c3ccc(-c4cccc(Cl)c4)cc3n2C)n(C)c1=O,> 1000

row,SMILES,Ki [nM]
1,Cn1c(=O)c2c(cc(/C=C/c3cccc(Cl)c3)n2C)n(C)c1=O,430
2,Cn1c(=O)c2c(cc(OCc3ccc(Cl)c(C(F)(F)F)c3)n2C)n(C)c1=O,> 10000
3,CCn1c(=O)c2c(cc(OCc3ccc(Cl)cc3)n2C)n(CC)c1=O,> 10000
4,Cn1c(=O)c2c(cc(/C=C/c3ccccc3O)n2C)n(C)c1=O,1140
5,Cn1c(=O)c2c(cc(/C=C/c3ccc(Br)cc3)n2C)n(C)c1=O,> 10000
6,Cn1c(=O)c2c(cc(/C=C/c3cccc(C#N)c3)n2C)n(C)c1=O,> 10000
7,Cn1c(/C=C/c2ccccc2)nc2c1ccc(=O)n2C,> 10000
8,CCn1c(/C=C/c2ccc(Cl)cc2)cc2c1c(=O)n(C)c(=O)n2C,> 10000
9,COc1cccc(/C=C/c2cc3c(c(=O)n(C)c(=O)n3C)n2C)c1,390
10,Cn1c(=O)c2c(cc(-n3cc(-c4ccc(Cl)cc4)nn3)n2C)n(C)c1=O,> 10000
11,CCCOc1ccc(/C=C/c2cc3c(c(=O)n(C)c(=O)n3C)n2C)cc1,307
12,Cn1c(=O)c2c(cc(Oc3cccc(Cl)c3)n2C)n(C)c1=O,> 10000
13,Cn1c(=O)c2c(cc(OCc3ccc4ccccc4c3)n2C)n(C)c1=O,> 10000
14,Cn1c(=O)c2c(cc(C#Cc3ccc(Cl)cc3)n2C)n(C)c1=O,> 10000
15,Cn1c(=O)c2c(cc(Oc3cccc(-c4ccccc4)c3)n2C)n(C)c1=O,> 10000
16,Cn1c(=O)c2c(cc(NC(=O)c3ccc(Cl)cc3)n2C)n(C)c1=O,> 10000
17,Cn1c(=O)c2c(cc(/C=C/c3ccc(S(C)(=O)=O)cc3)n2C)n(C)c1=O,> 1000
18,Cn1c(=O)c2c(cc(C#Cc3cccc(Cl)c3)n2C)n(C)c1=O,> 10000
19,Cn1ccc2nc(/C=C/c3ccccc3)n(C)c2c1=O,> 10000
20,CC(=O)c1ccc(/C=C/c2cc3c(c(=O)n(C)c(=O)n3C)n2C)cc1,93.9
21,Cn1c(=O)c2c(c3ccc(-c4ccccc4)cc3n2C)n(C)c1=O,> 10000

# Target: T1, Amine oxidase [flavin-containing] B (Homo sapiens, UniProt P27338)
# T1 sequence (P27338 whole entry): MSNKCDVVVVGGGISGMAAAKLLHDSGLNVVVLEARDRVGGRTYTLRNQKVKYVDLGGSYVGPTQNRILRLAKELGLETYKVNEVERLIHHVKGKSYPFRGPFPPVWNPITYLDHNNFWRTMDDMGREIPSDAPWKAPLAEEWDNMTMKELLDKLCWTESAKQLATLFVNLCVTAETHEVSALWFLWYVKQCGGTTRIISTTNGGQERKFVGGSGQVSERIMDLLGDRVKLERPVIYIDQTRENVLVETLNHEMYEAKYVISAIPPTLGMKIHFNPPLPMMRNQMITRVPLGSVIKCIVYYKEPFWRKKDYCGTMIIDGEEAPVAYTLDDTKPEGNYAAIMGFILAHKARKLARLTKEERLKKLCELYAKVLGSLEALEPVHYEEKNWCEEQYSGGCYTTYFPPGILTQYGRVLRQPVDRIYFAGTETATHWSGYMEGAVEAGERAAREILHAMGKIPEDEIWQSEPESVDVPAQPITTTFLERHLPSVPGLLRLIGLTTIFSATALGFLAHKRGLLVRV
# Assay: Inhibition of human MAOB after 1 hr by luminescence assay
row,SMILES,IC50 [nM]
1,Cn1c(=O)c2c(cc(/C=C/c3ccc(O)cc3)n2C)n(C)c1=O,> 10000
2,Cn1c(=O)c2c(cc(OCc3ccc(Cl)cc3)n2C)n(C)c1=O,48.1
3,CCn1c(=O)c2c(cc(C#Cc3ccc(Cl)cc3)n2C)n(CC)c1=O,> 1000
4,Cn1c(=O)c2c(cc(/C=C/c3ccc(C(F)(F)F)cc3)n2C)n(C)c1=O,432
5,Cn1c(=O)c2c(cc(/C=C/c3ccc(Cl)c(Cl)c3)n2C)n(C)c1=O,133
6,Cn1c(=O)c2c(cc(/C=C/c3cccc(C(F)(F)F)c3)n2C)n(C)c1=O,480
7,Cn1c(=O)c2c(cc(/C=C/c3ccc(F)cc3)n2C)n(C)c1=O,175
8,COc1ccc(/C=C/c2cc3c(c(=O)n(C)c(=O)n3C)n2C)cc1,762
9,Cn1c(=O)c2c(cc(/C=C/c3ccc(C#N)cc3)n2C)n(C)c1=O,543
10,CN(C(=O)/C=C/c1ccccc1)c1cn(C)c(=O)n(C)c1=O,> 10000
11,Cn1c(=O)c2c(cc(/C=C/c3ccccc3)n2C)n(C)c1=O,1580
12,Cn1c(=O)c2c(nc(/C=C/c3ccc(Cl)cc3)n2C)n(C)c1=O,430
13,CCn1c(=O)c2c(cc(/C=C/c3ccc(Cl)cc3)n2C)n(CC)c1=O,> 1000
14,Cn1c(=O)c2c(cc(/C=C/c3cccc(N)n3)n2C)n(C)c1=O,> 10000
15,Cn1c(=O)c2c(c3cc(OCc4ccccc4)ccc3n2C)n(C)c1=O,5220
16,Cn1c(=O)c2c(cc(-c3nc4ccc(Cl)cc4o3)n2C)n(C)c1=O,> 1000
17,Cn1c(=O)c2c(cc(C#CCc3ccccc3)n2C)n(C)c1=O,> 1000
18,CC(=O)c1cccc(/C=C/c2cc3c(c(=O)n(C)c(=O)n3C)n2C)c1,> 10000
19,Cn1c(=O)c2c(cc(/C=C/c3ccncc3)n2C)n(C)c1=O,> 10000
20,Cn1c(=O)c2c(cc(/C=C/c3cccc(O)c3)n2C)n(C)c1=O,> 1000
21,CCn1c(=O)c2c(nc(/C=C/c3ccc(OC)c(OC)c3)n2C)n(CC)c1=O [ISTRADEFYLLINE],> 10000
22,Cn1c(=O)c2c(cc(/C=C/c3ccc4c(c3)OCO4)n2C)n(C)c1=O,> 1000

row,SMILES,IC50 [nM]
1,Cn1c(=O)c2c(c3ccc(-c4cccc(Cl)c4)cc3n2C)n(C)c1=O,1390
2,Cn1c(=O)c2c(cc(/C=C/c3cccc(Cl)c3)n2C)n(C)c1=O,1480
3,Cn1c(=O)c2c(cc(OCc3ccc(Cl)c(C(F)(F)F)c3)n2C)n(C)c1=O,583
4,CCn1c(=O)c2c(cc(OCc3ccc(Cl)cc3)n2C)n(CC)c1=O,> 1000
5,Cn1c(=O)c2c(cc(/C=C/c3ccccc3O)n2C)n(C)c1=O,> 1000
6,Cn1c(=O)c2c(cc(/C=C/c3ccc(Br)cc3)n2C)n(C)c1=O,267
7,Cn1c(=O)c2c(cc(/C=C/c3cccc(C#N)c3)n2C)n(C)c1=O,> 10000
8,Cn1c(/C=C/c2ccccc2)nc2c1ccc(=O)n2C,> 10000
9,CCn1c(/C=C/c2ccc(Cl)cc2)cc2c1c(=O)n(C)c(=O)n2C,> 1000
10,COc1cccc(/C=C/c2cc3c(c(=O)n(C)c(=O)n3C)n2C)c1,370
11,Cn1c(=O)c2c(cc(-n3cc(-c4ccc(Cl)cc4)nn3)n2C)n(C)c1=O,182
12,CCCOc1ccc(/C=C/c2cc3c(c(=O)n(C)c(=O)n3C)n2C)cc1,1370
13,Cn1c(=O)c2c(cc(Oc3cccc(Cl)c3)n2C)n(C)c1=O,> 10000
14,Cn1c(=O)c2c(cc(OCc3ccc4ccccc4c3)n2C)n(C)c1=O,> 1000
15,Cn1c(=O)c2c(cc(C#Cc3ccc(Cl)cc3)n2C)n(C)c1=O,67.8
16,Cn1c(=O)c2c(cc(Oc3cccc(-c4ccccc4)c3)n2C)n(C)c1=O,> 10000
17,Cn1c(=O)c2c(cc(NC(=O)c3ccc(Cl)cc3)n2C)n(C)c1=O,> 10000
18,Cn1c(=O)c2c(cc(/C=C/c3ccc(S(C)(=O)=O)cc3)n2C)n(C)c1=O,> 1000
19,Cn1c(=O)c2c(cc(C#Cc3cccc(Cl)c3)n2C)n(C)c1=O,173
20,Cn1ccc2nc(/C=C/c3ccccc3)n(C)c2c1=O,> 10000
21,CC(=O)c1ccc(/C=C/c2cc3c(c(=O)n(C)c(=O)n3C)n2C)cc1,587
22,Cn1c(=O)c2c(c3ccc(-c4ccccc4)cc3n2C)n(C)c1=O,7630

# Target: T2, Amine oxidase [flavin-containing] A (Homo sapiens, UniProt P21397)
# T2 sequence (P21397 whole entry): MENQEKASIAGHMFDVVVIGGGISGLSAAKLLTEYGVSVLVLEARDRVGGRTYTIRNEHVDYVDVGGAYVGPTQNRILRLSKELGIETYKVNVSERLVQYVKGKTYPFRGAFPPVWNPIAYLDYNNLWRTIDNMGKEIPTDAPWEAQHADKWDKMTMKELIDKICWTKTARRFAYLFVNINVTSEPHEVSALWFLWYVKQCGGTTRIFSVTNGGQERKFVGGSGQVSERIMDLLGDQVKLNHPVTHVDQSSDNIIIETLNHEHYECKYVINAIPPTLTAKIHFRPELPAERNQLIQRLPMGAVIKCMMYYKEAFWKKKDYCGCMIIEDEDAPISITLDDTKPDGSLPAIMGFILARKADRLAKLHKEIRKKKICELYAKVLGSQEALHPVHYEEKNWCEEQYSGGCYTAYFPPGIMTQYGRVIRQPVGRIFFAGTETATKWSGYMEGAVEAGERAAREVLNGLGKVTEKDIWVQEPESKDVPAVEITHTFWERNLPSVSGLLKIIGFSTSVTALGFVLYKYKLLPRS
# Assay: Inhibition of human MAOA after 1 hr by luminescence assay
row,SMILES,IC50 [nM]
1,Cn1c(=O)c2c(cc(OCc3ccc(Cl)cc3)n2C)n(C)c1=O,2870
2,Cn1c(=O)c2c(cc(/C=C/c3ccc(C(F)(F)F)cc3)n2C)n(C)c1=O,> 10000
3,Cn1c(=O)c2c(cc(/C=C/c3cccc(C(F)(F)F)c3)n2C)n(C)c1=O,5690
4,Cn1c(=O)c2c(cc(/C=C/c3ccc(F)cc3)n2C)n(C)c1=O,812
5,COc1ccc(/C=C/c2cc3c(c(=O)n(C)c(=O)n3C)n2C)cc1,> 1000
6,Cn1c(=O)c2c(cc(/C=C/c3ccc(C#N)cc3)n2C)n(C)c1=O,> 10000
7,Cn1c(=O)c2c(nc(/C=C/c3ccc(Cl)cc3)n2C)n(C)c1=O,> 10000
8,Cn1c(=O)c2c(c3cc(OCc4ccccc4)ccc3n2C)n(C)c1=O,> 10000
9,Cn1c(=O)c2c(c3ccc(-c4cccc(Cl)c4)cc3n2C)n(C)c1=O,3110
10,Cn1c(=O)c2c(cc(OCc3ccc(Cl)c(C(F)(F)F)c3)n2C)n(C)c1=O,> 10000
11,Cn1c(=O)c2c(cc(/C=C/c3ccc(Br)cc3)n2C)n(C)c1=O,1630
12,COc1cccc(/C=C/c2cc3c(c(=O)n(C)c(=O)n3C)n2C)c1,1240
13,Cn1c(=O)c2c(cc(-n3cc(-c4ccc(Cl)cc4)nn3)n2C)n(C)c1=O,726
14,CCCOc1ccc(/C=C/c2cc3c(c(=O)n(C)c(=O)n3C)n2C)cc1,1300
15,Cn1c(=O)c2c(cc(OCc3ccc4ccccc4c3)n2C)n(C)c1=O,> 10000
16,Cn1c(=O)c2c(cc(C#Cc3ccc(Cl)cc3)n2C)n(C)c1=O,2020
17,Cn1c(=O)c2c(cc(C#Cc3cccc(Cl)c3)n2C)n(C)c1=O,> 10000
18,CC(=O)c1ccc(/C=C/c2cc3c(c(=O)n(C)c(=O)n3C)n2C)cc1,> 10000
